Assay results: patent US6770597B2, “Benzohydrazide derivatives as herbicides and desiccant compositions containing them” (Ishihara Sangyo Kaisha, Ltd., priority 2002, dated 2004)

Assays:
Assay type in all cases: in vivo
[1] = system: velvetleaf (Abutilon theophrasti, ABUTH); experiment: Greenhouse herbicide screen, post-emerge application, phytotoxicity rating; conditions: POST emergent, 14 days after application, scale 0-100
How it was run: (§1)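 Greenhouse pot test with soil-applied or foliar track-sprayer treatment at 15–1000 g ai/ha from acetone solution. Injury, from none (0) to total kill (100), was recorded 14 days after application.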

[2] = system: green foxtail (Setaria viridis, SETVI); experiment: as above; conditions: POST emergent, 14 days after application, scale 0-100
How it was run: as §1

[3] = system: redroot pigweed (Amaranthus retrofiexus, AMARE); experiment: as above; conditions: POST emergent, 14 days after application
How it was run: as §1

[4] = system: barnyardgrass (Echinochloa crus-galli, ECHCG); experiment: as above; conditions: POST emergent, 14 days after application, scale 0-100
How it was run: as §1

[5] = system: lambsquarters (Chenopodium album, CHEAL); experiment: as above; conditions: POST emergent, 14 days after application, scale 0-100
How it was run: as §1

[6] = system: common ragweed (Ambrosia artemisiifolia L., AMBEL); experiment: as above; conditions: POST emergent, 14 days after application, scale 0-100
How it was run: as §1

[7] = system: sicklepod (Cassia obtusifolia, CASOB); experiment: as above; conditions: POST emergent, 14 days after application, scale 0-100
How it was run: as §1

[8] = system: johnsongrass (Sorghum halepense, SORHA); experiment: as above; conditions: POST emergent, 14 days after application, scale 0-100
How it was run: as §1

[9] = system: large crabgrass (Digitaria sanguinalis, DIGSA); experiment: as above; conditions: POST emergent, 14 days after application, scale 0-100
How it was run: as §1

[10] = system: cocklebur (Xanthium strumarium, XANST); experiment: as above; conditions: POST emergent, 14 days after application, scale 0-100
How it was run: as §1

[11] = system: ivyleaf morningglory (Ipomoea hederacea, IPOHE); experiment: as above; conditions: POST emergent, 14 days after application, scale 0-100
How it was run: as §1

[12] = system: field corn (Zea mays L., var. Dekalb 535, CORN); experiment: Greenhouse herbicide screen, pre-emerge application, crop damage rating; conditions: PRE emergent, 14 days after application, rating scale 0-100
How it was run: as §1

[13] = system: upland rice (Oryza sp., var.Cocodrie, RICE); experiment: as above; conditions: PRE emergent, 14 days after application, rating scale 0-100
How it was run: as §1

[14] = system: velvetleaf (Abutilon theophrasti, ABUTH); experiment: Greenhouse herbicide screen, pre-emerge application, phytotoxicity rating; conditions: PRE emergent, 14 days after application, rating scale 0-100
How it was run: as §1

[15] = system: green foxtail (Setaria viridis, SETVI); experiment: as above; conditions: PRE emergent, 14 days after application, rating scale 0-100
How it was run: as §1

[16] = system: redroot pigweed (Amaranthus retrofiexus, AMARE); experiment: as above; conditions: PRE emergent, 14 days after application, rating scale 0-100
How it was run: as §1

[17] = system: barnyardgrass (Echinochloa crus-galli, ECHCG); experiment: as above; conditions: PRE emergent, 14 days after application, rating scale 0-100
How it was run: as §1

[18] = system: lambsquarters (Chenopodium album, CHEAL); experiment: as above; conditions: PRE emergent, 14 days after application, rating scale 0-100
How it was run: as §1

[19] = system: common ragweed (Ambrosia artemisiifolia L., AMBEL); experiment: as above; conditions: PRE emergent, 14 days after application, rating scale 0-100
How it was run: as §1

[20] = system: sicklepod (Cassia obtusifolia, CASOB); experiment: as above; conditions: PRE emergent, 14 days after application, rating scale 0-100
How it was run: as §1

[21] = system: johnsongrass (Sorghum halepense, SORHA); experiment: as above; conditions: PRE emergent, 14 days after application, rating scale 0-100
How it was run: as §1

[22] = system: large crabgrass (Digitaria sanguinalis, DIGSA); experiment: as above; conditions: PRE emergent, 14 days after application, rating scale 0-100
How it was run: as §1

[23] = system: cocklebur (Xanthium strumarium, XANST); experiment: as above; conditions: PRE emergent, 14 days after application, rating scale 0-100
How it was run: as §1

[24] = system: ivyleaf morningglory (Ipomoea hederacea, IPOHE); experiment: as above; conditions: PRE emergent, 14 days after application, rating scale 0-100
How it was run: as §1

[25] = system: field corn (Zea mays L., var. Dekalb 535, CORN); experiment: Greenhouse herbicide screen, post-emerge application, crop damage rating; conditions: POST emergent, 14 days after application, scale 0-100
How it was run: as §1

[26] = system: upland rice (Oryza sp., var.Cocodrie, RICE); experiment: as above; conditions: POST emergent, 14 days after application, scale 0-100
How it was run: as §1

[27] = 63 g ai/ha, scale 0-100 (0 no damage, 100 complete death)

CC(=O)OC(=NN1C(C)CCCC1C)c1cc(-n2c(=O)cc(C(F)(F)F)n(C)c2=O)c(F)cc1Cl (centres unmarked) [Compound 4-9]
phytotoxicity rating ABUTH ([1]; 63 g ai/ha): 100
phytotoxicity rating ABUTH ([1]; 250 g ai/ha): 100
phytotoxicity rating SETVI ([2]; 63 g ai/ha): 65
phytotoxicity rating SETVI ([2]; 250 g ai/ha): 100
phytotoxicity rating AMARE [3, 27]: 100
phytotoxicity rating AMARE ([3]; 250 g ai/ha, scale 0-100): 100
phytotoxicity rating ECHCO ([4]; 63 g ai/ha): 0
phytotoxicity rating ECHCO ([4]; 250 g ai/ha): 15
phytotoxicity rating CHEAL ([5]; 63 g ai/ha): 100
phytotoxicity rating CHEAL ([5]; 250 g ai/ha): 100
phytotoxicity rating AMBEL ([6]; 63 g ai/ha): 60
phytotoxicity rating AMBEL ([6]; 250 g ai/ha): 99
phytotoxicity rating CASOB ([7]; 63 g ai/ha): 60
phytotoxicity rating CASOB ([7]; 250 g ai/ha): 90
phytotoxicity rating SORHA ([8]; 63 g ai/ha): 0
phytotoxicity rating SORHA ([8]; 250 g ai/ha): 80
phytotoxicity rating DIGSA ([9]; 63 g ai/ha): 50
phytotoxicity rating DIGSA ([9]; 250 g ai/ha): 99
phytotoxicity rating XANST ([10]; 63 g ai/ha): 30
phytotoxicity rating XANST ([10]; 250 g ai/ha): 60
phytotoxicity rating IPOHE ([11]; 63 g ai/ha): 95
phytotoxicity rating IPOHE ([11]; 250 g ai/ha): 100
crop damage rating CORN ([12]; 63 g ai/ha): 30
crop damage rating CORN ([12]; 250 g ai/ha): 95
crop damage rating RICE ([13]; 63 g ai/ha): 10
crop damage rating RICE ([13]; 250 g ai/ha): 15
phytotoxicity rating ABUTH ([14]; 63 g ai/ha): 100
phytotoxicity rating ABUTH ([14]; 250 g ai/ha): 100
phytotoxicity rating SETVI ([15]; 63 g ai/ha): 100
phytotoxicity rating SETVI ([15]; 250 g ai/ha): 100
phytotoxicity rating AMARE ([16]; 63 g ai/ha): 100
phytotoxicity rating AMARE ([16]; 250 g ai/ha): 100
phytotoxicity rating ECHCG ([17]; 63 g ai/ha): 55
phytotoxicity rating ECHCG ([17]; 250 g ai/ha): 99
phytotoxicity rating CHEAL ([18]; 63 g ai/ha): 100
phytotoxicity rating CHEAL ([18]; 250 g ai/ha): 100
phytotoxicity rating AMBEL ([19]; 63 g ai/ha): 90
phytotoxicity rating AMBEL ([19]; 250 g ai/ha): 100
phytotoxicity rating CASOB ([20]; 63 g ai/ha): 80
phytotoxicity rating CASOB ([20]; 250 g ai/ha): 100
phytotoxicity rating SORHA ([21]; 63 g ai/ha): 65
phytotoxicity rating SORHA ([21]; 250 g ai/ha): 100
phytotoxicity rating DIGSA ([22]; 63 g ai/ha): 99
phytotoxicity rating DIGSA ([22]; 250 g ai/ha): 100
phytotoxicity rating XANST ([23]; 63 g ai/ha): 35
phytotoxicity rating XANST ([23]; 250 g ai/ha): 100
phytotoxicity rating IPOHE ([24]; 63 g ai/ha): 100
phytotoxicity rating IPOHE ([24]; 250 g ai/ha): 100
crop damage rating CORN ([25]; 63 g ai/ha): 0
crop damage rating CORN ([25]; 250 g ai/ha): 50
crop damage rating RICE ([26]; 63 g ai/ha): 0
crop damage rating RICE ([26]; 250 g ai/ha): 0

CC(=NN=C(OS(C)(=O)=O)c1cc(-n2c(=O)cc(C(F)(F)F)n(C)c2=O)c(F)cc1Cl)C(C)(C)C [Compound 5-3]
phytotoxicity rating ABUTH ([1]; 63 g ai/ha): 95
phytotoxicity rating SETVI ([2]; 63 g ai/ha): 60
phytotoxicity rating AMARE [3, 27]: 99
phytotoxicity rating ECHCO ([4]; 63 g ai/ha): 100
phytotoxicity rating CHEAL ([5]; 63 g ai/ha): 80
phytotoxicity rating AMBEL ([6]; 63 g ai/ha): 90
phytotoxicity rating CASOB ([7]; 63 g ai/ha): 50
phytotoxicity rating SORHA ([8]; 63 g ai/ha): 30
phytotoxicity rating DIGSA ([9]; 63 g ai/ha): 60
phytotoxicity rating XANST ([10]; 63 g ai/ha): 70
phytotoxicity rating IPOHE ([11]; 63 g ai/ha): 100
crop damage rating CORN ([12]; 63 g ai/ha): 50
crop damage rating RICE ([13]; 63 g ai/ha): 30
phytotoxicity rating ABUTH ([14]; 63 g ai/ha): 100
phytotoxicity rating SETVI ([15]; 63 g ai/ha): 55
phytotoxicity rating AMARE ([16]; 63 g ai/ha): 100
phytotoxicity rating ECHCG ([17]; 63 g ai/ha): 30
phytotoxicity rating CHEAL ([18]; 63 g ai/ha): 100
phytotoxicity rating AMBEL ([19]; 63 g ai/ha): 60
phytotoxicity rating CASOB ([20]; 63 g ai/ha): 70
phytotoxicity rating SORHA ([21]; 63 g ai/ha): 90
phytotoxicity rating DIGSA ([22]; 63 g ai/ha): 60
phytotoxicity rating XANST ([23]; 63 g ai/ha): 30
phytotoxicity rating IPOHE ([24]; 63 g ai/ha): 80
crop damage rating CORN ([25]; 63 g ai/ha): 60
crop damage rating RICE ([26]; 63 g ai/ha): 10

CC(=NN=C(OC(=O)C(Cl)Cl)c1cc(-n2c(=O)cc(C(F)(F)F)n(C)c2=O)c(F)cc1Cl)C(C)(C)C [Compound 5-4]
phytotoxicity rating ABUTH ([1]; 63 g ai/ha): 99
phytotoxicity rating SETVI ([2]; 63 g ai/ha): 55
phytotoxicity rating AMARE [3, 27]: 95
phytotoxicity rating ECHCO ([4]; 63 g ai/ha): 90
phytotoxicity rating CHEAL ([5]; 63 g ai/ha): 70
phytotoxicity rating AMBEL ([6]; 63 g ai/ha): 95
phytotoxicity rating CASOB ([7]; 63 g ai/ha): 50
phytotoxicity rating SORHA ([8]; 63 g ai/ha): 30
phytotoxicity rating DIGSA ([9]; 63 g ai/ha): 75
phytotoxicity rating XANST ([10]; 63 g ai/ha): 65
phytotoxicity rating IPOHE ([11]; 63 g ai/ha): 100
crop damage rating CORN ([12]; 63 g ai/ha): 10
crop damage rating RICE ([13]; 63 g ai/ha): 55
phytotoxicity rating ABUTH ([14]; 63 g ai/ha): 100
phytotoxicity rating SETVI ([15]; 63 g ai/ha): 50
phytotoxicity rating AMARE ([16]; 63 g ai/ha): 100
phytotoxicity rating ECHCG ([17]; 63 g ai/ha): 40
phytotoxicity rating CHEAL ([18]; 63 g ai/ha): 100
phytotoxicity rating AMBEL ([19]; 63 g ai/ha): 70
phytotoxicity rating CASOB ([20]; 63 g ai/ha): 30
phytotoxicity rating SORHA ([21]; 63 g ai/ha): 85
phytotoxicity rating DIGSA ([22]; 63 g ai/ha): 55
phytotoxicity rating XANST ([23]; 63 g ai/ha): 40
phytotoxicity rating IPOHE ([24]; 63 g ai/ha): 100
crop damage rating CORN ([25]; 63 g ai/ha): 60
crop damage rating RICE ([26]; 63 g ai/ha): 10
